The target in the test is T1, AEK1 (Trypanosoma brucei, UniProt Q582V7).
T1 construct: gene Tb03.48O8.470
The experiment in a line: TR-FRET displacement of probe SCP-2. In kind it is binding. Particulars: read-out: % control^a.

T1 sequence (Q582V7 entry or part of it): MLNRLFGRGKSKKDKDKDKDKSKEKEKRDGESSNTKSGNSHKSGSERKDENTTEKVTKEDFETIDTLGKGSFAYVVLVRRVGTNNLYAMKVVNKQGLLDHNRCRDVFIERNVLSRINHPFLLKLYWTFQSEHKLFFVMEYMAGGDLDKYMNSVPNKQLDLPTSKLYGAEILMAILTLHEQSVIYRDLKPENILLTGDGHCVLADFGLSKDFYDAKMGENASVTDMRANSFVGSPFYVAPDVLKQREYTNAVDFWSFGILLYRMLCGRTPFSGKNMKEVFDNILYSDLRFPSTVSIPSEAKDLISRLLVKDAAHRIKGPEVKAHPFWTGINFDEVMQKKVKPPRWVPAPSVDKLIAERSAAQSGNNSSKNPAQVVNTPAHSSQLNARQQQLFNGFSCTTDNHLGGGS

With `COc1cc2c(Oc3ccc4[nH]c(C)cc4c3F)ncnc2cc1OCCCN1CCCC1` [Cediranib (AZD2171)], the probe binding remaining (% of control) at 1 µM worked out at 36.6%.
For `Cn1cc(-c2[nH]c3cc(NC(=O)[C@H](N)C4CCCCC4)cc4c3c2C=NNC4=O)cn1` [PF-477736] the value was 23.1%.
The same measure for `Cc1nc(Nc2[nH]nc3c2CN(C(=O)N[C@H](CN(C)C)c2ccccc2)C3(C)C)c2sccc2n1` [PF-3758309]: 38.2%; for `Cc1c[nH]c2nc(Nc3ccc(N4CCN(C)CC4)c(F)c3)nc(-c3cccc(CC#N)c3)c12` [SGI-7079]: 43.7%; for `CCS(=O)(=O)c1cccc(-c2cc(C(=O)NC3CCN(C)CC3)c(C)c3[nH]c4ncc(C)cc4c23)c1` [TAK-901]: 20.1%.

These data come from publication PMC10720658 (Frontiers in parasitology, 2023).
